Test results taken from US5525617A, “Fibrinogen receptor antagonists” (Merck & Co., Inc., priority 1994, dated 1996).

Test system: gel-filtered human platelets
Test: in vitro ADP-stimulated platelet aggregation (inhibition)
Type: cell-based
Settings: gel-filtered human platelets 2×10^8 per ml, fibrinogen 100 micrograms per ml, Ca^2+ 1 mM, 10 mM ADP, 37° C., Chronolog aggregometer
Experimental: Platelet aggregation is measured at 37° C. in a Chronolog aggregometer. The reaction mixture contains gel-filtered human platelets (2×10^8 per ml), fibrinogen (100 micrograms per ml (ug/ml)), Ca^2+ (1 mM), and the compound to be tested. The aggregation is initiated by adding […] ADP 1 minute after the other components are added. The reaction is then allowed to proceed for at least 2 minutes. The extent of inhibition of aggregation is expressed as the percentage of the rate of aggregation observed in the absence of inhibitor. The IC50 is the dose of a particular compound inhibiting aggregation by 50% relative to a control lacking the compound.
In addition to the following preparative procedures, several examples of in vitro bioactivity of compounds within the scope of the present invention are indicated. To illustrate, one test which is used to evaluate fibrinogen receptor antagonist activity is based on evaluation of inhibition of ADP-stimulated platelets. Aggregation requires that fibrinogen bind to and occupy the platelet fibrinogen receptor site. Inhibitors of fibrinogen binding inhibit aggregation. In the ADP-stimulated platelet aggregation assay used to determine inhibition associated with the compounds claimed in the instant invention, human platelets are isolated from fresh blood, collected into acid citrate/dextrose by differential centrifugation followed by gel filtration on Sepharose 2B in divalent ion-free Tyrode's buffer (pH 7.4) containing 2% bovine serum albumin.

IC50 [nM] | Compound
2300 | O=C(O)CCNC(=O)c1ccc2c(c1)C(=O)C(CCC1CCNCC1)C2 (stereo not drawn)
9 | CCCCS(=O)(=O)N[C@@H](CNC(=O)c1ccc2c(c1)C(=O)C(CCC1CCNCC1)C2)C(=O)O (stereo partly drawn)
14 | CCCCS(=O)(=O)N[C@@H](CNC(=O)c1ccc2c(c1)CC(CCC1CCNCC1)C2)C(=O)O (stereo partly drawn)
